From US20030134859A1 (SANKYO COMPANY, LIMITED, priority 2000, published 2003) come the findings set out here.

The first experiment concerns Mouse preadipocyte strain 3T3-L1. The experiment is described as follows: Inhibition of differentiation as an indication of acetic acid uptake. It is filed as cell-based. The conditions noted are these: 0.1 μM test substance, control (0.01% dimethylsulfoxide) = 100%. A digest of the protocol:
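Differentiation is indexed by 1 hr [2-14C]acetic acid incorporation, measured by scintillation counting and given as uptake relative to 0.01% DMSO control (100%). Mouse 3T3-L1 preadipocytes, pre-grown 10 days, received 0.1 μM test substance throughout a 4-day insulin/IBMX/dexamethasone induction, followed by 2 days' maintenance culture.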
Regarding “N-[4-(Pyrrolidinylsulfonyl)phenyl]-(2-chloro-5-nitrophenyl)carboxamide [Example 152]”, the “Rate of Uptake (%) of [2-14C] acetic acid” value is reported as 69.6%.

`O=C(Nc1ccc(-c2ccccn2)cc1)c1cc([N+](=O)[O-])ccc1Cl` [Example 8, N-[4-(2-Pyridyl)phenyl]-(2-chloro-5-nitrophenyl)carboxamide]: the “Rate of Uptake (%) of [2-14C] acetic acid” value was found to be 47.2%.

Staying with this experiment, now noted: Mus musculus, 3T3-L1, 0.1 μM test substance, control (0.01% dimethylsulfoxide) = 100%, read-out: Rate of Uptake (%) of [2-14C] acetic acid.
Regarding `Cc1cnc(NC(=O)c2cc([N+](=O)[O-])ccc2Cl)s1` [Example 4, N-(5-Methylthiazol-2-yl)-(2-chloro-5-nitrophenyl)carboxamide], the activity at 0.1 µM amounted to 92.5%.

Turning to `O=C(Nc1cccc2cccnc12)c1cc([N+](=O)[O-])ccc1Cl` [Example 57, N-(8-Quinolinyl)-(2-chloro-5-nitrophenyl)carboxamide], the activity at 0.1 µM turned out to be 58.4%.

Turning to `Cc1ccnc(NC(=O)c2cc([N+](=O)[O-])ccc2Cl)n1` [Example 65, N-(4-Methylpyrimidin-2-yl)-(2-chloro-5-nitrophenyl)carboxamide], the activity at 0.1 µM came out at 63.4%.

As for `CC(C)(C)c1cc(NC(=O)c2cc([N+](=O)[O-])ccc2Cl)cc(C(C)(C)C)c1O` [Example 29, N-(3,5-Di-t-butyl-4-hydroxyphenyl)-(2-chloro-5-nitrophenyl)carboxamide], the activity at 0.1 µM worked out at 68.6%.

For `O=C(Nc1cccc(-c2ccccc2)c1)c1cc([N+](=O)[O-])ccc1Cl` [Example 5, N-(3-Phenylphenyl)-(2-chloro-5-nitrophenyl)carboxamide], the activity at 0.1 µM was found to be 43.4%.

In the case of `Cn1c(NC(=O)c2cc([N+](=O)[O-])ccc2Cl)nc2ccccc21` [Example 82, N-(1-Methylbenzimidazol-2-yl)-(2-chloro-5-nitrophenyl)carboxamide], the activity at 0.1 µM came out at 83%.

In the case of `O=C(Nc1ccc(S(=O)(=O)Nc2nccs2)cc1)c1cc([N+](=O)[O-])ccc1Cl` [Example 96, N-[4-(Thiazol-2-yl)aminosulfonyl]phenyl-(2-chloro-5-nitrophenyl)carboxamide], the activity at 0.1 µM was found to be 98.7%.

For the molecule `Cc1ccc(NC(=O)c2cc([N+](=O)[O-])ccc2Cl)nc1` [Example 52, N-(5-Methylpyridin-2-yl)-(2-chloro-5-nitrophenyl)carboxamide], the activity at 0.1 µM was 52.3%.

In the case of `Cc1cc(Cl)nc(NC(=O)c2cc([N+](=O)[O-])ccc2Cl)n1` [Example 78, N-(4-Chloro-6-methylpyrimidin-2-yl)-(2-chloro-5-nitrophenyl)carboxamide], the activity at 0.1 µM came to 68.2%.

For the molecule `COC(=O)c1sccc1NC(=O)c1cc([N+](=O)[O-])ccc1Cl` [Example 66, N-(2-Methoxycarbonylthiophen-3-yl)-(2-chloro-5-nitrophenyl)carboxamide], the activity at 0.1 µM is 70.7%.

As to `O=C(Nc1ccc(NC(=O)c2cc([N+](=O)[O-])ccc2Cl)cc1)c1ccccc1` [Example 119, N-(4-Benzoylaminophenyl)-(2-chloro-5-nitrophenyl)carboxamide], the activity at 0.1 µM stood at 65.7%.

In the case of `O=C(Nc1ccc(S(=O)(=O)Nc2ccc(Cl)nn2)cc1)c1cc([N+](=O)[O-])ccc1Cl` [Example 102, N-[4-[(6-Chloropyridazin-3-yl)aminosulfonyl]phenyl]-(2-chloro-5-nitrophenyl)carboxamide], the activity at 0.1 µM was 76.8%.

Consider `O=C(Nc1nc(-c2cccnc2)cs1)c1cc([N+](=O)[O-])ccc1Cl` [Example 37, N-[4-(3-Pyridyl)thiazol-2-yl)-(2-chloro-5-nitrophenyl)carboxamide], for which the activity at 0.1 µM was 38.6%.

For the molecule `O=C(Nc1ccc(-c2ccccc2)cc1)c1cc([N+](=O)[O-])ccc1Cl` [Example 2, N-(4-Phenylphenyl)-(2-chloro-5-nitrophenyl)carboxamide], the activity at 0.1 µM is 42.7%.

As for `CCCCCc1ccc(NC(=O)c2cc([N+](=O)[O-])ccc2Cl)cc1` [Example 16, N-(4-Pentylphenyl)-(2-chloro-5-nitrophenyl)carboxamide], the activity at 0.1 µM is 83.7%.

Regarding `N=C(N)NS(=O)(=O)c1ccc(NC(=O)c2cc([N+](=O)[O-])ccc2Cl)cc1` [Example 106, N-[4-(Amidinoaminosulfonyl)phenyl]-(2-chloro-5-nitrophenyl)carboxamide], the activity at 0.1 µM stood at 82%.

In the case of `CC(=O)Nc1ccc(NC(=O)c2cc([N+](=O)[O-])ccc2Cl)cc1` [Example 117, N-(4-Acetylaminophenyl)-(2-chloro-5-nitrophenyl)carboxamide], the activity at 0.1 µM turned out to be 87%.

With `O=C(Nc1cccc(NS(=O)(=O)c2ccccc2)c1)c1cc([N+](=O)[O-])ccc1Cl` [Example 30, N-(3-Benzensulfonylaminophenyl)-(2-chloro-5-nitrophenyl)carboxamide], the activity at 0.1 µM came to 60.1%.

On to `O=C(Nc1ccc(S(=O)(=O)Nc2cccnc2)cc1)c1cc([N+](=O)[O-])ccc1Cl` [Example 178], for which the activity at 0.1 µM was found to be 66.2%.

For `COc1cnc(NS(=O)(=O)c2ccc(NC(=O)c3cc([N+](=O)[O-])ccc3Cl)cc2)nc1` [Example 105, N-[4-[(5-Methoxypyrimidin-2-yl)aminosulfonyl]phenyl]-(2-chloro-5-nitrophenyl)carboxamide], the activity at 0.1 µM came out at 89.4%.

In the case of `O=C(Nc1ccccc1-c1ccccc1)c1cc([N+](=O)[O-])ccc1Cl` [Example 7, N-(2-Phenylphenyl)-(2-chloro-5-nitrophenyl)carboxamide], the activity at 0.1 µM stood at 65%.

With `N#Cc1ccc(NC(=O)c2cc([N+](=O)[O-])ccc2Cl)cc1` [Example 20, N-(4-Cyanophenyl)-(2-chloro-5-nitrophenyl)carboxamide], the activity at 0.1 µM worked out at 65.9%.

In the case of `CC(C)(C)OC(=O)Nc1ccc(-c2ccc(NC(=O)c3cc([N+](=O)[O-])ccc3Cl)cc2)cc1` [Example 87, N-[4-[4-(tert-Butoxycarbonylamino)phenyl]phenyl]-(2-chloro-5-nitrophenyl)carboxamide], the activity at 0.1 µM came to 57.1%.

Regarding `Cc1nc(NC(=O)c2cc([N+](=O)[O-])ccc2Cl)sc1C` [Example 47], the activity at 0.1 µM amounted to 63.1%.

Regarding `Cc1cccc(-c2csc(NC(=O)c3cc([N+](=O)[O-])ccc3Cl)n2)c1` [Example 40, N-[4-(3-Methylphenyl)thiazol-2-yl)-(2-chloro-5-nitrophenyl)carboxamide], the activity at 0.1 µM amounted to 45.3%.

Turning to `CCOC(=O)c1ccc(NC(=O)c2cc([N+](=O)[O-])ccc2Cl)cc1` [Example 26, N-(4-Ethoxycarbonylphenyl)-(2-chloro-5-nitrophenyl)carboxamide], the activity at 0.1 µM amounted to 87.5%.

`O=C(Nc1nncs1)c1cc([N+](=O)[O-])ccc1Cl` [Example 85, N-(1,3,4-Thiadiazol-2-yl)-(2-chloro-5-nitrophenyl)carboxamide]: the activity at 0.1 µM came to 67.1%.

With `O=C(Nc1nc(-c2ccccc2)cs1)c1cc([N+](=O)[O-])ccc1Cl` [Example 35, N-(4-Phenylthiazol-2-yl)-(2-chloro-5-nitrophenyl)carboxamide], the activity at 0.1 µM was 71.5%.

Take `O=C(Nc1nc(-c2ccccn2)cs1)c1cc([N+](=O)[O-])ccc1Cl` [Example 38, N-[4-(2-Pyridyl)thiazol-2-yl)-(2-chloro-5-nitrophenyl)carboxamide]: the activity at 0.1 µM is 82%.

Regarding `Cc1ccc2nc(-c3ccc(NC(=O)c4cc([N+](=O)[O-])ccc4Cl)cc3)sc2c1` [Example 10, N-[4-(6-Methylbenzothiazol-2-yl)phenyl]-(2-chloro-5-nitrophenyl)carboxamide], the activity at 0.1 µM stood at 85.3%.

Consider `O=C(Nc1nc(-c2cccc3ccccc23)cs1)c1cc([N+](=O)[O-])ccc1Cl` [Example 41, N-[4-(1-Naphthyl)thiazol-2-yl]-(2-chloro-5-nitrophenyl)carboxamide], for which the activity at 0.1 µM was 53.8%.

With `CCc1ccc(-c2csc(NC(=O)c3cc([N+](=O)[O-])ccc3Cl)n2)cc1` [Example 44, N-[4-(4-Ethylphenyl)thiazol-2-yl]-(2-chloro-5-nitrophenyl)carboxamide], the activity at 0.1 µM amounted to 67.6%.

On to `Cc1ccc(S(=O)(=O)Nc2ccc(NC(=O)c3cc([N+](=O)[O-])ccc3Cl)cc2)cc1` [Example 116, N-[4-(4-Toluenesulfonylamino)phenyl]-(2-chloro-5-nitrophenyl)carboxamide], for which the activity at 0.1 µM was 95.1%.

Turning to `O=C(Nc1nnc(-c2ccccc2)s1)c1cc([N+](=O)[O-])ccc1Cl` [Example 110, N-(5-Phenyl-[1,3,4]thiadiazol-2-yl)-(2-chloro-5—nitrophenyl)carboxamide], the activity at 0.1 µM amounted to 84.6%.

For `Cc1cccc(NC(=O)c2cc([N+](=O)[O-])ccc2Cl)n1` [Example 51, N-(6-Methylpyridin-2-yl)-(2-chloro-5-nitrophenyl)carboxamide], the activity at 0.1 µM is 57.5%.

As for `O=C(Nc1cccnc1)c1cc([N+](=O)[O-])ccc1Cl` [Example 50, N-(3-Pyridyl)-(2-chloro-5-nitrophenyl)carboxamide], the activity at 0.1 µM amounted to 61.4%.

Take `Cc1ccc(-c2nc(NC(=O)c3cc([N+](=O)[O-])ccc3Cl)sc2C)cc1Cl` [Example 46, N-[4-(3-Chloro-4-methylphenyl)-5-methylthiazol-2-yl]-(2-chloro-5-nitrophenyl)carboxamide]: the activity at 0.1 µM is 67%.

For the molecule `O=C(Nc1nc(-c2ccc(F)c(F)c2)cs1)c1cc([N+](=O)[O-])ccc1Cl` [Example 111, N-[4-(3,4-Difluorophenyl)thiazol-2-yl]-(2-chloro-5-nitrophenyl)carboxamide], the activity at 0.1 µM was determined as 61.2%.

Take `O=C(Nc1cccc2nsnc12)c1cc([N+](=O)[O-])ccc1Cl` [Example 86, N-(2,1,3-Benzothiazol-4-yl)-(2-chloro-5-nitrophenyl)carboxamide]: the activity at 0.1 µM came to 51.7%.

As for `Cc1ccc(NC(=O)c2cc([N+](=O)[O-])ccc2Cl)cc1` [Example 1, N-(4-Methylphenyl)-(2-chloro-5-nitrophenyl)carboxamide], the activity at 0.1 µM amounted to 64%.
